Patent publication US9920053B2, “N-(hetero)aryl-substituted heteroyclic derivatives useful for the treatment of diseases or conditions related to the central nervous system” (CHRONOS THERAPEUTICS LIMITED, priority 2014, dated 2018)

Key:
[1] = molecular target: human norepinephrine transporter (NET) (Homo sapiens (Human), UniProt P23975); assay: Scintillation Proximity Assay (SPA) for human NET binding ([3H]nisoxetine); details: recombinant human NET, CHO membranes
Text: (§1) Affinity is expressed in terms of inhibition constant (Ki) of the compounds of the invention for DAT, NET and SERT, and it is typically calculated from the IC50 values obtained in competition experiments using Cheng and Prusoff equation (Cheng and Prusoff, Biochem. Pharmacol. 22:3099, 1973). In the context of the present invention pKi values (corresponding to the antilogarithm of Ki) are used instead of Ki; pKi are only estimated to be accurate to about 0.3 log unit.
(§2) Chinese Hamster Ovary (CHO) cells stably expressing either human DAT (hDAT-CHO) or human NET (hNET-CHO) or human SERT (hSERT-CHO) are used for the membrane preparations for radioligand binding assays using Scintillation proximity Assay (SPA) technique. Each cell line is cultured independently in F-12K Nutrient Mixture containing 10% of Fetal Bovine Serum (FBS) supplemented with 450 μg/ml G-418. When cells are at 70-80% of confluence 3 mM Na Butyrate was added to the cell culture medium. After 24 h of incubation, the culture medium was removed and the cells detached with Versene (DAT) or by scraping (NET and SERT). Cell suspension is centrifuged at 41,000 g for 10 minutes at 4° C. The resultant pellets are re-suspended in 15 volumes of Ice-cold buffer (20 mM HEPES, 145 mM NaCl, 5 mM KCl, pH7.3), homogenized using an Ultra Turrax homogeniser and centrifuged as before. The resultant membrane pellets are re-suspended in up to 15 volume of ice-cold buffer, incubated for 20 minutes at 37° C and centrifuged as before at 41,000 g. The final membrane pellets are re-suspended into 5-10 volumes of ice-cold buffer, dispensed into 0.5 ml aliquots and stored at −80° C. until use. Protein concentration for each preparation is determined using Bio-Rad Protein Assay Kit.
(§3) The affinity of the compounds of the invention to the human DAT or NET or SERT transporters is assessed by using the [^3H]WIN-35,428 or [^3H]nisoxetine or [^3H]citalopram binding assays in recombinant human DAT, NET and SERT membranes with the SPA technology. The final assay volume is 50 μL in 384 well plates.
(§4) Briefly, 0.5 μL of test compound in neat DMSO or 0.5 μL of DMSO for total binding (TB) or 0.5 μL of indatraline 1 mM (10 μM final concentration) for non specific binding (NSB) are added to the assay plate. 50 μL of the SPA mixture is added to each well, containing: 30 μg/mL or 10 μg/mL or 25 μg/mL DAT, NET, SERT membranes, respectively; 5 nM [^3H]WIN-35,428 or 5 nM [^3H]nisoxetine or 1 nM [^3H]citalopram, for DAT, NET, SERT assay, respectively; 2.5 mg/mL or 1 mg/mL or 4 mg/mL WGA-PVT SPA beads (PerkinElmer RPNQ0001, for DAT, NET, SERT assay, respectively. All components are added to Assay Buffer (20 mM HEPES pH 7.4, 145 mM NaCl, 5 mM KCl, 0.01% Pluronic F-127). 0.02% BSA was used for DAT binding only. Plates are sealed with Topseal A and centrifuged 1 min, 800 rpm. Plates are loaded into a 1450 Microbeta TriLux (Perkin-Elmer) plate reader and the radioactivity counted after at least 4 hrs or overnight incubation at room temperature. Curve fitting and IC50 estimations are performed using a four parameter model in XLfit (IDBS, Guilford, UK) for Microdoft Excel (Microsoft, Redmond, Wash.).

[2] = molecular target: human serotonin transporter (SERT) (Homo sapiens (Human), UniProt P31645); assay: Scintillation Proximity Assay (SPA) for human SERT binding ([3H]citalopram); details: recombinant human SERT, CHO membranes
Text: as §1, §2, §3, §4

[3] = molecular target: human ERG potassium channel (hERG) (Homo sapiens (Human), UniProt Q12809); assay: hERG channel tail current recording using Rapid ICE automated patch-clamp; type: cell-based; details: HEK293 cells stably transfected with hERG
Procedure: The potency of the compounds of the invention in inhibiting human ERG potassium channel (hERG) tail current is assessed in a recombinant HEK293 cell line stably transfected with hERG cDNA using Rapid ICE™ (Rapid Ion Channel Electrophysiology) assay. Rapid ICE™ is an automated patch-clamp assay utilizing the PatchXpress 7000A system (Molecular Devices Corporation) or the QPatch HTX system (Sophion Bioscience A/S).
Briefly cells are cultivated for 24 to 72 hours before recordings in minimum essential medium supplemented with 10% FBS, 1% non-essential amino acids, 1% sodium pyruvate, 2 mM L-glutamine. The day of the experiment cells are detached with TrypLE and prepared to be loaded on the instrument. For PatchXpress cells are finally resuspended in 150 μl of Extracellular Buffer whereas for QPatch cells are resuspended in 7 ml Serum-Free Media containing 25 mM Hepes and Soybean trypsin inhibitor and immediately placed in the cell storage tank of the machine. The composition of the Extracellular Buffer is (mM): NaCl 137; KCl 4; CaCl2 1.8; MgCl2 1.0; D-glucose 10; N 2 hydroxyethylpiperazine-N′-2-ethanesulfonic acid (HEPES) 10; pH 7.4 with 1 M NaOH. The composition of the pipette solution is (mM): KCl 130; MgCl2 1.0; Ethylene glycol-bis(β-aminoethyl ether)-N,N,N′,N′-tetraacetic acid (EGTA) 5; MgATP 5; HEPES 10; pH 7.2 with 1 M KOH. The voltage protocol includes the following steps: step from −80 mV to −50 mV for 200 ms, +20 mV for 4.8 s, step to −50 mV for 5 s then step to the holding potential of −80 mV. Compounds of the invention are dissolved in DMSO and diluted in Extracellular Buffer to achieve final test concentrations (0.1, 1 and 10 μM) in 0.1% DMSO. The voltage protocol is run and recorded continuously during the experiment. The vehicle, corresponding to 0.1% DMSO in Extracellular Buffer, is then applied for 3 min followed by the test substance in triplicate. The standard combined exposure time is 5 min. The average of tail current amplitude values recorded from 4 sequential voltage pulses is used to calculate for each cell the effect of the test substance by calculating the residual current (% control) compared with vehicle pre-treatment. Data are reported as % inhibition for each concentration tested and IC50 values are estimated using DataXpress or QPatch software. At least two cells are tested, more if results diverge.

[4] = molecular target: human dopamine transporter (DAT) (Homo sapiens (Human), UniProt Q01959); assay: Scintillation Proximity Assay (SPA) for human DAT binding ([3H]WIN-35,428); details: recombinant human DAT, CHO
Text: as §1, §2, §3, §4
The potency of the compounds of the invention in blocking the DAT function is measured using an uptake assay in a recombinant CHO cell line expressing human DAT (hDAT-CHO). Potency is measured in terms of pIC50 by testing the compounds of invention for the inhibition of [^3H]-dopamine uptake in DAT-CHO cells using a SPA technology in 384 well format.
Briefly, on the days of the experiment hDAT-CHO cells are detached using Versene and added (75,000 cells/mL) to the SPA Mixture, which contains the following components in Assay Buffer (20 mM HEPES, 145 mM NaCl, 5 mM KCl, 2 mM CaCl2, 1 mM MgCl2 and 1 g/L glucose, pH 7.3): 0.02% w/v of Pluronic F127, 2 mg/mL SPA Imaging beads (RPNQ0260, PerkinElmer), 10 μM pargyline and 80 nM of [^3H]-dopamine. […]

human dopamine transporter (DAT), sequence (Q01959 whole entry): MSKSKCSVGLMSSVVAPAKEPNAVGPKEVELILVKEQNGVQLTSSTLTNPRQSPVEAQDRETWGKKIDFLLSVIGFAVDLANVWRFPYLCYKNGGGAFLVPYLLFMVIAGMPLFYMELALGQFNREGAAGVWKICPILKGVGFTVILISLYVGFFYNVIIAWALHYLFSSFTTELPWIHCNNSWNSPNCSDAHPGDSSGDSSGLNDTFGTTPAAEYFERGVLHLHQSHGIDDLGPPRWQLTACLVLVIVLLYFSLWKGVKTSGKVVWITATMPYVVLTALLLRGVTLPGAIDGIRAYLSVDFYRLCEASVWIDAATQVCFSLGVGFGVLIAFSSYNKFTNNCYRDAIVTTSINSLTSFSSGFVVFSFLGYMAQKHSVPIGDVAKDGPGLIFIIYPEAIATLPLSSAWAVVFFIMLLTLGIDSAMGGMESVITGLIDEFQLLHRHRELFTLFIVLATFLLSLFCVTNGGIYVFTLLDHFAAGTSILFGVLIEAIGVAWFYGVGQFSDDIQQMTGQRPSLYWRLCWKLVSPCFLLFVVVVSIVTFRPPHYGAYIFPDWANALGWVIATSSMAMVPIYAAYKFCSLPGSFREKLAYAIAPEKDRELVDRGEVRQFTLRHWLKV
human norepinephrine transporter (NET), sequence (P23975 whole entry): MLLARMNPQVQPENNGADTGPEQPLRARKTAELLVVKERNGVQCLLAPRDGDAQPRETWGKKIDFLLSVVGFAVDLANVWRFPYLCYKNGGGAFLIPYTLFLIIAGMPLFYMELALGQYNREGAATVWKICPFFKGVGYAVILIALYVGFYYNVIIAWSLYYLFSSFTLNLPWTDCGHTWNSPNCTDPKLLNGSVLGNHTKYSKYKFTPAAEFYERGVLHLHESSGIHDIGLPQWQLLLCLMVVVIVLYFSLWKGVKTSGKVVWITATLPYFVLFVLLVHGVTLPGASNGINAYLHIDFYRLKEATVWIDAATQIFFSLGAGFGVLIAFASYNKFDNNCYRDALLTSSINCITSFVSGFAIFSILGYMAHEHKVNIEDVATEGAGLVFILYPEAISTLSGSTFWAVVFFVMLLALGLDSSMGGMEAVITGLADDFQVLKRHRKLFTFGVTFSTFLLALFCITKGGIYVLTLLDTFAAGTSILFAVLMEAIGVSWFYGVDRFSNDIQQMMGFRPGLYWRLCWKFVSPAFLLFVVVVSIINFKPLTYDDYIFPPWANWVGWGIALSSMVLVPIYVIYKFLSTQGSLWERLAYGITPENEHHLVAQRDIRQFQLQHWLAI
human ERG potassium channel (hERG), sequence (Q12809 whole entry): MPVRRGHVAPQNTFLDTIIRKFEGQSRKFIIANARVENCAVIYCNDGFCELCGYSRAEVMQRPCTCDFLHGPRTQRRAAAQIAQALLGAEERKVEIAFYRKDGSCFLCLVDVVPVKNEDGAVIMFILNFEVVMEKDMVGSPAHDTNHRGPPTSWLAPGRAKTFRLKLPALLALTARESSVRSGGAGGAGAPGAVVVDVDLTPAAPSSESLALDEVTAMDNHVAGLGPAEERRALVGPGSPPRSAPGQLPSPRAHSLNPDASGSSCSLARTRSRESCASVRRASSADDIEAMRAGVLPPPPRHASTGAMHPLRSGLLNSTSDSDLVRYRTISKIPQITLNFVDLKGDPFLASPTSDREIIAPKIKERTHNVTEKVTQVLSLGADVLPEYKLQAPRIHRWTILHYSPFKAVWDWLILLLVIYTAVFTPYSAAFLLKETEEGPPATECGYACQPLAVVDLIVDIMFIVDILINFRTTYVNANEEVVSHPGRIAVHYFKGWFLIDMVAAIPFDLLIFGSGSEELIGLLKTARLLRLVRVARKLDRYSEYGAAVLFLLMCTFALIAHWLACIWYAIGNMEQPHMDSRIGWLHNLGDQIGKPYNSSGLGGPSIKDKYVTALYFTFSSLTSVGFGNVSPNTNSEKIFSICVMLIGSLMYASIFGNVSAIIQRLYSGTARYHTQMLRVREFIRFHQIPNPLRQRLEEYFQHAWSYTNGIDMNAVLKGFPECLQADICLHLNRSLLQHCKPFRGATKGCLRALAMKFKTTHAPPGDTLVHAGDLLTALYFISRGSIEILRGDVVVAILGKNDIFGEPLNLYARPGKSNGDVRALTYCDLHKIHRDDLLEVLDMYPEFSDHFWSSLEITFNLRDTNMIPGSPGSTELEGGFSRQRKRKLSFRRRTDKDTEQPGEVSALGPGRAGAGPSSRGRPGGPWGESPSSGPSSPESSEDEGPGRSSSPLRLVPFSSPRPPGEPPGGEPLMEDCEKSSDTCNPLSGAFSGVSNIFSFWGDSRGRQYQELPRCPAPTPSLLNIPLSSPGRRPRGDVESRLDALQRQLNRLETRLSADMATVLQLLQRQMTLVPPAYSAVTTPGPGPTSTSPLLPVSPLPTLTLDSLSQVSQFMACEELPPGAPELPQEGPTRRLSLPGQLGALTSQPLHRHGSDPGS
human serotonin transporter (SERT), sequence (P31645 whole entry): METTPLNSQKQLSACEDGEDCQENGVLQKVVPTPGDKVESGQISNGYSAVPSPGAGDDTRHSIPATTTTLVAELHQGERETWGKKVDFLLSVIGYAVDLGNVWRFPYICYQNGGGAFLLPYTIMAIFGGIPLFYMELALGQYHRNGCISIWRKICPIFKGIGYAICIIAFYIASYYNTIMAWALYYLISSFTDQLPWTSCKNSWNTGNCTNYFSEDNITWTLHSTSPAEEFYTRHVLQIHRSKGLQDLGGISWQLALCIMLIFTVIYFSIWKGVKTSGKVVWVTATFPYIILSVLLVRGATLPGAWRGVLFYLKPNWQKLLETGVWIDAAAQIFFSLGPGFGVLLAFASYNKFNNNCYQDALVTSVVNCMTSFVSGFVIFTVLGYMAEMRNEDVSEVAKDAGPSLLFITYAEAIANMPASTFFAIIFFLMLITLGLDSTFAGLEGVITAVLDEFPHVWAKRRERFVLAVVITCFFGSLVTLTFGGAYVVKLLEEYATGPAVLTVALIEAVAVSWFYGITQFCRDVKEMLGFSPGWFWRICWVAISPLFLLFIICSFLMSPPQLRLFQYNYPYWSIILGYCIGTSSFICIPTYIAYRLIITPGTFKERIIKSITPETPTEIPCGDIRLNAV

| SMILES | pIC50 NET [1] | IC50 [2] | pIC50 hERG [3] | pIC50 DAT [4] | IC50 [3] | IC50 [1] |
| --- | --- | --- | --- | --- | --- | --- |
| OC1(CN2CCCC2)CCN(c2nc(Oc3cccc(F)c3)cc(C(F)(F)F)n2)CC1 [Example 2, 1-[4-(3-fluorophenoxy)-6-(trifluoromethyl)pyrimidin-2-yl]-4-(pyrrolidin-1-ylmethyl)piperidin-4-ol] | 7.57 | 17 µM | 6.7 | 8.80 |  |  |
| OC1(CNC2CC2)CCN(c2nc(Oc3cccc(F)c3)cc(C(F)(F)F)n2)CC1 [Example 3, 4-[(cyclopropylamino)methyl]-1-[4-(3-fluorophenoxy)-6-(trifluoromethyl)pyrimidin-2-yl]piperidin-4-ol] | 6.42 | 21.4 µM | 6.0 | 8.13 |  |  |
| CN(CC1(O)CCN(c2nc(Oc3cccc(F)c3)cc(C(F)(F)F)n2)CC1)C1CC1 [Example 4, 4-{[cyclopropyl(methyl)amino]methyl}-1-[4-(3-fluorophenoxy)-6-(trifluoromethyl)pyrimidin-2-yl]piperidin-4-ol] | 6.19 | > 100 µM | 6.1 | 7.38 |  |  |
| CNCC1(O)CCN(c2nc(Oc3cccc(F)c3)cc(C(F)(F)F)n2)CC1 [Example 5, 1-[4-(3-fluorophenoxy)-6-(trifluoromethyl)pyrimidin-2-yl]-4-[(methylamino)methyl]piperidin-4-ol] | 6.61 | 23.4 µM | 5.7 | 8.33 |  |  |
| OC1(CN2CCC(F)(F)C2)CCN(c2nc(Oc3cccc(F)c3)cc(C(F)(F)F)n2)CC1 [Example 6, 4-[(3,3-difluoropyrrolidin-1-yl)methyl]-1-[4-(3-fluorophenoxy)-6-(trifluoromethyl)pyrimidin-2-yl]piperidin-4-ol] | 5.94 | 32.4 µM |  | 6.89 | > 10 µM |  |
| Cl.OC1(CN2CCCNCC2)CCN(c2nc(Oc3cccc(F)c3)cc(C(F)(F)F)n2)CC1 [Example 7, 4-(1,4-diazepan-1-ylmethyl)-1-[4-(3-fluorophenoxy)-6-(trifluoromethyl)pyrimidin-2-yl]piperidin-4-ol hydrochloride] | 6.53 | 2.95 µM | 5.8 | 8.06 |  |  |
| CC1CCC(C)N1CC1(O)CCN(c2nc(Oc3cccc(F)c3)cc(C(F)(F)F)n2)CC1 (centres unmarked) [Example 8, 4-[(2,5-dimethylpyrrolidin-1-yl)methyl]-1-[4-(3-fluorophenoxy)-6-(trifluoromethyl)pyrimidin-2-yl]piperidin-4-ol] | 6.29 | 6.03 µM | 6.8 | 7.66 |  |  |
| NCC1(O)CCN(c2nc(Oc3cccc(F)c3)cc(C(F)(F)F)n2)CC1 [Example 11, 4-(aminomethyl)-1-[4-(3-fluorophenoxy)-6-(trifluoromethyl)pyrimidin-2-yl]piperidin-4-ol] | 6.46 | 7.59 µM | 5.8 | 8.72 |  |  |
| NCC1(F)CCN(c2nc(Oc3cccc(F)c3)cc(C(F)(F)F)n2)CC1 [Example 13, {4-fluoro-1-[4-(3-fluorophenoxy)-6-(trifluoromethyl)pyrimidin-2-yl]piperidin-4-yl}methanamine] | 6.40 | 7.24 µM | 5.4 | 8.31 |  |  |
| NCC1(O)CCN(c2cc(Oc3cccc(F)c3)cc(F)c2F)CC1 [Example 18, 4-(aminomethyl)-1-[2,3-difluoro-5-(3-fluorophenoxy)phenyl]piperidin-4-ol] | 7.51 | 6.17 µM | 6.0 | 9.05 |  |  |
| NCC1(O)CCN(c2cc(F)c(F)c(Oc3cccc(F)c3)c2)CC1 [Example 19, 4-(aminomethyl)-1-[3,4-difluoro-5-(3-fluorophenoxy)phenyl]piperidin-4-ol] | 6.10 | 0.363 µM | 6.1 | 8.02 |  |  |
| CC(C)C(=O)NCC1(O)CCN(c2nc(Oc3cccc(F)c3)cc(C(F)(F)F)n2)CC1 [Example 21, N-({1-[4-(3-fluorophenoxy)-6-(trifluoromethyl)pyrimidin-2-yl]-4-hydroxypiperidin-4-yl}methyl)-2-methylpropanamide] | 4.75 | > 100 µM |  | 7.84 | > 10 µM |  |
| O=C(NCC1(O)CCN(c2nc(Oc3cccc(F)c3)cc(C(F)(F)F)n2)CC1)C1CNC1 [Example 25, N-({1-[4-(3-fluorophenoxy)-6-(trifluoromethyl)pyrimidin-2-yl]-4-hydroxypiperidin-4-yl}methyl)azetidine-3-carboxamide] | 5.70 | 35.5 µM |  | 8.30 | > 10 µM |  |
| O=C(NCC1(O)CCN(c2nc(Oc3cccc(F)c3)cc(C(F)(F)F)n2)CC1)c1ccccc1 [Example 26, N-({1-[4-(3-fluorophenoxy)-6-(trifluoromethyl)pyrimidin-2-yl]-4-hydroxypiperidin-4-yl}methyl)benzamide] |  | > 100 µM | 5.5 | 7.65 |  | > 100 µM |
